In one assay the test system is RKO cells (BRAF V600E). Put plainly: Proliferation inhibition (CellTiter-Glo), RKO. It is filed as cell-based, human. The conditions noted are these: 3 days, read-out: RKO Prolif. EC50. As to the method:
(§1) All cancer cell lines (A375, A101D, A2058, RKO, HT29 SK-MEL 30, IPC298, HepG2, HCT-116, Lovo, SWV620, SW480, NCI-H358, NCI-H2122, Calu-6, NCIH2087, NCIH1755, NCIH1666 and Mewo) were obtained from ATCC and cultured in RPMI-1640 medium (Gibco) supplemented with 5% heat inactivated fetal bovine serum (FBS, Wisent) at 37° C. under 5% CO2. Cells were maintained in T175 flasks (Greiner). They were passaged by removing the culture medium, washing once in 10 mL of room temperature Phosphate Buffered Saline (PBS; Wisent) and incubating at 37° C. with 2 mL of 0.05% Trypsin (Thermo-Fisher). Trypsin was then inactivated by adding complete growth medium and the cells were then replated in a T175 culture dish at the appropriate dilution. All cell lines were routinely tested for mycoplasma contamination. Tissue type and mutational status of each cell line can be found in Table B.
(§2) CellTiter-Glo® viability analysis was conducted on cells plated in 100 μL of complete RPMI-1640 growth medium in 96-well flat-bottomed white opaque plates (Greiner or Croning) at a density indicated in Table E (for each CCL, number of cells plated per well of a 96-well plate to perform the CellTiter-Glo® cell viability assay). The cell density in cells/cm^2 would correspond to cell number divided by the area of one well of a 96-well plate (0.32 cm^2). […]
(§3) After 3 days of incubation, the growth media were removed by aspiration and 60 μL of diluted CellTiter-Glo® reagent (10 μL CellTiter-Glo® reagent+50 μL of PBS) was added to each well. […] Luminescence signals were then acquired on a Synergy Neo2 plate reader (Biotek).
(§4) The effect of each compound dilution on the proliferation of cancer cell lines was expressed in % inhibition and calculated as follows. […]
(§5) The ability of each compound to inhibit proliferation was expressed as a EC50 value obtained by plotting the effect values for each data point of a dilution series and fitting the obtained curves using a log(agonist) versus response-variable slope (four parameters) function using GraphPadPrism (V7.0) or Dotmatics Screening Ultra platform.

The target in a further assay is ARAF (Homo sapiens (Human), UniProt P10398). Put plainly: ARAF kinase activity assay (AlphaLISA p-MEK 1/2 detection). In kind it is biochemical. As to the method: Compound preparation: solid samples of each substances in 1 dram vials were suspended in DMSO (Fisher Scientific) at a stock concentration of 20 mM. Stocks were kept at −20° C. and protected from light. If solubility of the compound at 20 mM appeared to be an issue, the initial concentration of the DMSO stock was changed to 10 mM or 5 mM.
In vitro enzymatic reactions were used for evaluating compounds intrinsic activity against BRAF, CRAF and ARAF. For BRAF and CRAF, 0.375 nM of purified GST-tagged kinases (cat #B4062-10 UG and cat #R1656-10 UG respectively from Millipore Sigma) were incubated with 75 nM of kinase-dead MEK1 substrate (cat #40075; BPS Bioscience) in the presence of 10 μM of Ultrapure ATP (cat #V9102; Promega; part V915A) with and without the test compound in a buffer containing 50 mM HEPES pH 7.5, 10 mM MgCl2, 1 mM EDTA, 0.01% Brij-35 and 2 mM DTT. Separate reactions were performed with the MEK1 substrate and ATP as a blank control. ARAF, kinase reactions were rigorously the same with the exception that kinase concentration was raised to 3.75 nM (cat #1768-0000-1; Reaction Biology).
For compound treatment, 5 μL/well of test substance solution are placed in a 384-well proxyplate (Perkin Elmer) and mixed with 2× concentrated kinase reactions. The dilution series is selected so that nine concentrations cover a range from 100 nM to 0.01 nM. […] The final concentration of DMSO in the assay is set at 0.05%.
ARAF kinase reactions were carried out for a total of 2 hours at 30° C. and then stopped by addition of EDTA at a final concentration of 40 mM. Reactions were then detected using the AlphaLISA® SureFire® Ultra™ p-MEK 1/2 (Ser218/222) (PerkinElmer) kit. Reactions were performed with 5 μL of kinase reaction according to the manufacturer's specifications in 384-well proxyplates (Perkin Elmer) followed by overnight incubation of the AlphaLISA® reactions at room temperature in a humidified chamber. After completion of the detection reactions, the signals were recorded on a Synergy Neo2 plate reader (Biotek) equipped with AlphaLISA® filters. The effect of each compound dilution on the pMEK signal generated by ARAF reactions was expressed in % inhibition and calculated as follows. An internal 100% inhibition control (average of luminescence in kinase reactions comprising kinase dead MEK1 substrate alone) was included in each plate to measure of pMEK background and was subtracted from each data point. The average of DMSO (vehicle) controls (set as 0% inhibition) was also established and used to calculate % inhibition: % inhibition=100*(1−((pMEK signalcompound)/(pMEK signalDMSO)))
IC50 values were obtained by plotting the kinase inhibition values and fitting the dose-activity curves using a log(agonist) versus response-variable slope (four parameters) function using either GraphPadPrism (V7.0) or Dotmatics Screening Ultra platform. Standards included in the ARAF kinase assay were Belvarafenib (MedChem Express cat #HY-109080; CAS #1446113-23-0), LXH254 (MedChem Express cat #HY-112089; CAS #1800398-38-2) and BGB283 (cat #HY-18957; CAS #1446090-79-4).
(Bead proximity is the source of the signal in Alpha formats.)

Assay [1] deals with NCI-H358 cells (KRAS-G12C). Kind of assay: Proliferation inhibition (CellTiter-Glo), NCI-H358. It is filed as cell-based, human. The conditions noted are these: NCI-H358, 3 days, read-out: NCI-H358 Prolif. EC50. As to the method:
as §1, §2, §3, §4, §5
In general terms: ATP-based viability assays read luminescence as a measure of living cells.

The subject of a further assay is Mewo cells (NF1 LOF). Put plainly: Proliferation inhibition (CellTiter-Glo), Mewo. In kind it is cell-based, human. The conditions noted are these: 3 days, read-out: Mewo Prolif. EC50. Here is the method:
as §1, §2, §3, §4, §5

Read-outs that look alike come from different tables or passages of the source.

What is called EC50 is the concentration giving half of the maximal effect. As usually defined, the IC50 is the concentration needed to halve the response being measured.

Sequence of ARAF (P10398 whole entry): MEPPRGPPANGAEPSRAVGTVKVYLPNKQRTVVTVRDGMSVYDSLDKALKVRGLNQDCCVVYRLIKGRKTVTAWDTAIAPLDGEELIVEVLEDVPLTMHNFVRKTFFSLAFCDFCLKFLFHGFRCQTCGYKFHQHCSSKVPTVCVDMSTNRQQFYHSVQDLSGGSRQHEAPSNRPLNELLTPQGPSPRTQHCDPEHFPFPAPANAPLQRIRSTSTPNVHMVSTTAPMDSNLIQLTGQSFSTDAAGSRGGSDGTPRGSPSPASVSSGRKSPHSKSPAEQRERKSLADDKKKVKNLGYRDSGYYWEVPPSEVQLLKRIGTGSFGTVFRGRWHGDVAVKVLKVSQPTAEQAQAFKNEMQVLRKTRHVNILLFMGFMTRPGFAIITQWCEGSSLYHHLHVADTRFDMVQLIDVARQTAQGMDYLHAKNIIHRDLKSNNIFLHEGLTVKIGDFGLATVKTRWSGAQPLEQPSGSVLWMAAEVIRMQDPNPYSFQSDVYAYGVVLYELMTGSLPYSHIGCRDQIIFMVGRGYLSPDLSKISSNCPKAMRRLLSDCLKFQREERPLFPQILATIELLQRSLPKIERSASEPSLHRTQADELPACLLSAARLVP

Regarding `Nc1cccc2c1ncn2-c1ccc2ncnc(Nc3c(F)ccc(NS(=O)(=O)c4cccc(Cl)c4Cl)c3F)c2n1` [Example 99], the EC50 (in the assay with RKO cells (BRAF V600E); in assay [1]; in the assay on Mewo cells (NF1 LOF)) was less than 30 nM each time. On ARAF, the IC50 was less than 1 nM.

Take `CC1(O)CCN(c2cccc3c2ncn3-c2ccc3ncnc(Nc4c(F)ccc(NS(=O)(=O)c5cccc(Cl)c5Cl)c4F)c3n2)CC1` [Example 524]: the concentration giving a half-maximal response (EC50) (in the assay with RKO cells (BRAF V600E); in assay [1]; in the assay with Mewo cells (NF1 LOF)) was less than 30 nM throughout. Further, on ARAF, the IC50 was 1 to 10 nM.

Regarding `Cc1ccc2c(Nc3cccc(Cl)c3F)nccc2c1NC(=O)c1csc2c(N)ncnc12` [Belvarafenib, reference compound], the EC50 in the assay on RKO cells (BRAF V600E) (Homo sapiens, 72 h) was less than 30 nM; in assay [1] (Homo sapiens, 72 h), 300 to 3000 nM; with Mewo cells (NF1 LOF) (Homo sapiens, 72 h), 300 to 3000 nM. On ARAF, the IC50 is more than 10 nM.

Source of the values: patent US12139488B2, “Pyrido[3,2-d]pyrimidine compounds uses thereof for treating a proliferative disease” (Universite de Montreal, priority 2021, dated 2024).
